The values that follow come from patent US6596863B2, “Medical composition containing nitroetheneamine Derivative or salt there of as active constituent” (Ishihara Sangyo Kaisha, Ltd., priority 1998, dated 2003).

In data set [1] the target is T1, human MMP-9 (gelatinase B) (Homo sapiens, UniProt P14780).
T1 construct: endogenous in cells; host or cells: HT1080 human fibrosarcoma cells (ATCC CCL-121), PMA-stimulated; enzyme purified from the culture supernatant
Nature of the data set: Inhibition activity against human MMP-9 (gelatinase B), fluorescent peptide substrate. The class given is biochemical. The conditions noted are these: compounds of the formula (I). On the procedure:
Human MMP-9 (gelatinase B) was purified by the following method from a culture supernatant of HT1080 cells (human fibrosarcoma).
2.5×10^6 HT1080 cells (ATCC CCL-121, purchased from Dainippon Seiyaku) were inoculated to a tissue culture dish (Code No. 3020-100, manufactured by Iwaki Glass Co., Ltd.) having a diameter of 10 cm and containing 10 ml of Dulbecco's Modified Eagle Medium (DME, No. D-5648, manufactured by Sigma Co.) containing 10% fetal bovine serum (FBS: REHATUIN™, Code No. 1020-90, manufactured by Intergen Co.) and cultured for 72 hours at 37° C. in an atmosphere comprising 5% of CO2 and 95% of air (Carbon Dioxide Incubator LNA-122D Model, manufactured by Tabai Co.). Then, the medium was changed to 10 ml of a DME culture medium containing no FBS, and phorbol 12-myristate 13-acetate (PMA, code No. 163-114851, manufactured by Wako Pure Chemical Industries, Ltd.) was added so that the final concentration became 10 ng/ml. Under the same conditions, the culturing was carried out for further 20 hours, whereupon the culture supernatant was collected and subjected to cool centrifugation at 4° C. for 5 minutes (cool centrifugal separator, manufactured by Hitachi) to remove cell fragments.
The pH of a conditioned medium (50 ml) containing MMP-9, thus prepared, was adjusted to 8.0 with 0.2N NaOH. […] Namely, the above-mentioned conditioned medium was passed through DEAE-Sephacel (manufactured by Pharmacia, gel volume: about 35 ml) preliminarily equilibrated with 50 mM Tris-HCl, pH 8.0 (A buffer), and a non-adsorption fraction was collected. Then, it was added to Dye Matrix Gel Green A (manufactured by Amicon Co., gel volume: about 6 ml) preliminarily equilibrated with 50 mM Tris-HCl, pH 7.5/10 MM CaCl2/0.05% Brij 35/0.02% NaN3 (B buffer) and thoroughly washed with the same buffer, whereupon the adsorbed enzyme was eluted with a 1M NaCl-containing B buffer. About 7.5 ml of the eluted fraction was diluted twice with the B buffer and added to Gelatin-Sepharose 4B (manufactured by Pharmacia, gel volume: about 6 ml) preliminarily equilibrated with a 0.5 M NaCl-containing B buffer. It was thoroughly washed with a 0.5M NaCl-containing B buffer, and eluted with the B buffer containing 10% of dimethylsulfoxide (DMSO) and 0.5 M of NaCl. 5.5 ml of the eluted fraction was dialyzed against a 0.1 M NaCl-containing B buffer to obtain 5.2 ml of a purified enzyme solution. The purified MMP-9 standard product was confirmed to have a single band of 92 kDa by a protein staining by SDS electrophoresis, and further, it was confirmed to have an adequate gelatin decomposing activity by gelatinzymography (carried out in accordance with a method by Howard E. W. et al; Journal Biological Chemistry, Vol. 266, 13064-13069, 1991) and to have an adequate substrate decomposing activity by the after-mentioned measurement employing a fluorescent peptide substrate specific to MMP.
The inhibition activity against human MMP-9 was measured by the following method in accordance with the method by C. G. Knight et al (FEBS Letters, Vol, 296, 263-266, 1992) employing a fluorescent peptide substrate (7-methoxycoumarin-4-yl)Acetyl-Pro-Leu-Gly-Leu-(3-[2,4-dinitrophenyl]—Ala—Arg-NH2, Code 3163-VC, manufactured by Peptide Institute, Inc.
Further, as the case requires, commercially available human MMP-9 purified enzyme (No. YU-18003, manufactured by Kabushiki Kaisha Yagai Chuo Kenkyusho; used in a final concentration of from 0.0125 to 0.025 unit/ml, No. CC079, manufactured by Chemicon International, Inc.; used in a final concentration of 0.2 μg/ml) was used for the tests. […]

[2] abbreviates: 1st measurement, read-out: MMP-9 inhibition activities IC50, 1st.
[3] abbreviates: 2nd measurement, read-out: MMP-9 inhibition activities IC50, 2nd.
The mark [4] stands for this setting: average of 1st and 2nd (or single measurement), read-out: MMP-9 inhibition activities IC50, Average.

Like-named read-outs stand apart in the source and are kept apart here.

T1 sequence (P14780 107-707 limits assumed): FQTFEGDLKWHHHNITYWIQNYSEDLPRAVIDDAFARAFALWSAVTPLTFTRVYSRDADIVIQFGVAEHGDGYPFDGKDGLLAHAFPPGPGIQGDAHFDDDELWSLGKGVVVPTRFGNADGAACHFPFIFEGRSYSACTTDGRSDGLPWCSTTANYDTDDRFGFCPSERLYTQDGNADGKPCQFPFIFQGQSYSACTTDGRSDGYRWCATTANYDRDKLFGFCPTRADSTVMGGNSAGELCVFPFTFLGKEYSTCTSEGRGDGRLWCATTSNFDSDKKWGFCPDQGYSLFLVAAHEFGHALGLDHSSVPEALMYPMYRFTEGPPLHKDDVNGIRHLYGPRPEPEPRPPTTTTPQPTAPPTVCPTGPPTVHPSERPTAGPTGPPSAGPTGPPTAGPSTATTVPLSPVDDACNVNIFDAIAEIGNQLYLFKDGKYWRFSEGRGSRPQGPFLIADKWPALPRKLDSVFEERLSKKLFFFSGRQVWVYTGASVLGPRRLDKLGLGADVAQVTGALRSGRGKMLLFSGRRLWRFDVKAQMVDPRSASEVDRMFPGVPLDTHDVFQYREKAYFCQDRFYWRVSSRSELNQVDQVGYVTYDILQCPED

In the case of `CNC(=C[N+](=O)[O-])NN(C)c1ccc(C(F)(F)F)cn1` [compound 36], the melting point lay in the range of 153 to 154 °C. Also, in data set [1] (setting [2]), the IC50 was found to be 19.7 µM. For the same molecule, in data set [1] (setting [3]), the 50% inhibitory concentration (IC50) was 24.3 µM. Besides, the IC50 in data set [1] (setting [4]) worked out at 22 µM.
For `CNC(=C[N+](=O)[O-])NN=C(C)c1ccncc1` [compound 38], in that order: 199 °C (dec.), 13.7 µM, 19.1 µM and 16.4 µM.
For `CNC(=C[N+](=O)[O-])NN(C)c1cccc(C(F)(F)F)n1` [compound 39], in that order: 191 to 192 °C (dec.), 16.1 µM, 29.2 µM and 22.7 µM.
The matching figures for `CNC(=C[N+](=O)[O-])NNc1ccc(C(F)(F)F)cc1` [compound 40]: 190 °C, 13.5 µM, 28.7 µM and 21.1 µM.
`COc1ccc(NC(=C[N+](=O)[O-])NNc2ccc(C(F)(F)F)cn2)cc1` [compound 41] yielded a melting point of 155 to 157 °C. Besides, the IC50 in data set [1] (setting [2]) turned out to be 15.1 µM. Also, the IC50 in data set [1] (setting [3]) stood at 13.7 µM. Also, the IC50 in data set [1] (setting [4]) stood at 14.4 µM.
The matching figures for `CNC(=C[N+](=O)[O-])NNc1cccc(C(=O)O)c1` [compound 42]: 250 °C, 41.4 µM, 40.7 µM and 41.4 µM.
For `CNC(=C[N+](=O)[O-])NNc1cc(C(F)(F)F)cc(C(F)(F)F)n1` [compound 44], in that order: 192 to 193 °C (dec.), 19.6 µM, 26.8 µM and 23.2 µM.
For `CNC(=C[N+](=O)[O-])NNc1ncccn1` [compound 45], in that order: 182 to 183 °C (dec.), 33.8 µM, 26.3 µM and 30.1 µM.
In the case of `Cc1ccc(NC(=C[N+](=O)[O-])NN)cc1` [compound 48], the melting point is 191 °C (dec.). Also, in data set [1] (setting [2]), the IC50 came to 20.6 µM. Further, the IC50 in data set [1] (setting [3]) was determined as 18.2 µM. The IC50 in data set [1] (setting [4]) came out at 19.4 µM.
Consider `COc1ccc(NC(=C[N+](=O)[O-])NN)cc1` [compound 49], for which the melting point was 195 °C (dec.). Also, the half-inhibitory concentration (IC50) in data set [1] (setting [2]) was 15.6 µM. For the same molecule, the IC50 in data set [1] (setting [3]) worked out at 18 µM. For the same molecule, the IC50 in data set [1] (setting [4]) turned out to be 16.8 µM.
The matching figures for `NNC(=C[N+](=O)[O-])Nc1cccnc1` [compound 50]: 175 °C (dec.), 25.7 µM, 23 µM and 24.3 µM.
For `COc1cccc(NC(=C[N+](=O)[O-])NN)c1` [compound 52], in that order: 144 °C, 21.6 µM, 30.2 µM and 25.9 µM.
The matching figures for `NNC(=C[N+](=O)[O-])Nc1ccc(F)cc1` [compound 53]: 183.5 °C (dec.), 22.6 µM, 29.3 µM and 26 µM.
In the case of `NNC(=C[N+](=O)[O-])NCc1ccncc1` [compound 55], the melting point was 176 °C (dec.). Further, the IC50 in data set [1] (setting [2]) was 25.3 µM. The IC50 in data set [1] (setting [3]) was found to be 30 µM. The concentration for half-maximal inhibition (IC50) in data set [1] (setting [4]) is 27.7 µM.
Molecule `COc1ccc(NC(=C[N+](=O)[O-])NN)cc1OC` [compound 56] returned a melting point of 148 °C. Moreover, in data set [1] (setting [2]), the IC50 amounted to 39.9 µM. In data set [1] (setting [3]), the IC50 was determined as 33.5 µM. The IC50 in data set [1] (setting [4]) amounted to 36.7 µM.
The matching figures for `COc1ccccc1NC(=C[N+](=O)[O-])NN` [compound 57]: 135.5 to 136 °C, 38.7 µM, 35.1 µM and 36.6 µM.
The matching figures for `NNC(=C[N+](=O)[O-])NN1CCOCC1` [compound 67]: 187 °C (dec.), 56.9 µM, 43.1 µM and 50 µM.
For `CCOc1ccc(NC(=C[N+](=O)[O-])NN)cc1` [compound 70], in that order: 198 °C (dec.), 42.1 µM, 57.1 µM and 49.6 µM.
As to `CCCOc1ccc(NC(=C[N+](=O)[O-])NN)cc1` [compound 71], the melting point is 179 °C (dec.). Besides, the IC50 in data set [1] (setting [2]) came to 42.9 µM. Besides, the IC50 in data set [1] (setting [3]) worked out at 37.4 µM. Moreover, the IC50 in data set [1] (setting [4]) was determined as 40.2 µM.
For `CSc1ccc(NC(=C[N+](=O)[O-])NN)cc1` [compound 72], in that order: 177 °C (dec.), 40.8 µM, 41.5 µM and 41.2 µM.
The matching figures for `CCOC(=O)Cc1ccc(NC(=C[N+](=O)[O-])NN)cc1` [compound 73]: 68 to 70 °C, 44.6 µM, 47.9 µM and 46.3 µM.
The matching figures for `CCOC(=O)c1ccc(NC(=C[N+](=O)[O-])NN)cc1` [compound 74]: 155 °C (dec.), 49.6 µM, 49.4 µM and 49.5 µM.
As for `NNC(=C[N+](=O)[O-])Nc1ccc(O)cc1` [compound 76], the melting point is 190 °C (dec.). Moreover, the IC50 in data set [1] (setting [2]) was determined as 34 µM. Moreover, the IC50 in data set [1] (setting [3]) worked out at 33.8 µM. Besides, the IC50 in data set [1] (setting [4]) turned out to be 33.9 µM.
For `NNC(=C[N+](=O)[O-])NCc1cccc(C(F)(F)F)c1` [compound 77], in that order: 155 °C, 41.4 µM, 35.2 µM and 38.3 µM.
For `NNC(=C[N+](=O)[O-])NCc1ccc(C(F)(F)F)cc1` [compound 78], in that order: 162 °C, 44.1 µM, 36 µM and 40.1 µM.
The matching figures for `NNC(=C[N+](=O)[O-])NCc1ccccn1` [compound 79]: 190 °C (dec.), 39 µM, 36.6 µM and 37.8 µM.
As for `NNC(=C[N+](=O)[O-])NC1CCCCC1` [compound 86], the melting point is 196 °C (dec.). The IC50 in data set [1] (setting [2]) turned out to be 41.8 µM. In data set [1] (setting [3]), the IC50 is 41.5 µM. Also, in data set [1] (setting [4]), the IC50 was 41.7 µM.
The matching figures for `NNC(=C[N+](=O)[O-])Nc1ccccc1` [compound 87]: 153 °C (dec.), 20.5 µM, 25.3 µM and 22.9 µM.
Regarding `NNC(=C[N+](=O)[O-])NC1CC1` [compound 90], the melting point was 145 °C (dec.). Further, the IC50 in data set [1] (setting [2]) came out at 18.7 µM. For the same molecule, the half-inhibitory concentration (IC50) in data set [1] (setting [3]) turned out to be 37.4 µM. The IC50 in data set [1] (setting [4]) turned out to be 28 µM.
The matching figures for `NNC(=C[N+](=O)[O-])NC1CCCC1` [compound 91]: 192 °C (dec.), 20 µM, 35.7 µM and 27.9 µM.
